Reference: publication PMC5799093, “Proceedings of Réanimation 2018, the French Intensive Care Society International Congress” (Annals of Intensive Care, 2018)
Read-outs that look alike come from different tables or passages of the source.

Tests used:
Staphylococcus aureus [1] = assay: Resistance in nosocomial urinary tract infection: Staphylococcus aureus (P-219); settings: January 2010 - June 2014
Staphylococcus aureus [2] = assay type: cell-based; settings: blood culture isolates 2012–2016
Procedure: (§1) Patients and methods: From January 2012 to December 2016, a total of 2,182 non repetitive strains were isolated from blood cultures. Incubation of blood culture vials and the detection of bacterial growth were performed by the BACTEC system. All Isolated organisms were identified on the basis of standard microbiological techniques. Antibiotic susceptibility testing was carried out by the agar disk diffusion method, and susceptibility results were interpreted using clinical breakpoints according to CA-SFM 2013 and 2015 guidelines. Data were analyzed using the SIR-system. Minimum inhibitory concentrations of colistin, imipenem and vancomycin were determined using the Etest® method (bioMérieux).

[3] = system: coagulase negative Staphylococcus; assay: Resistance of nosocomial infection isolates: coagulase negative Staphylococcus (P-222); assay type: cell-based; settings: n = 12 isolates, 2016
Excerpt: (§2) Patients and methods: This was a retrospective study conducted within a 22-bed medical ICU of a Tunisian teaching hospital (301 beds) carried from January 1st to December 31, 2016. We recorded demographic patients’ characteristics which ICU’s stay was complicated with at least one NI. Then we described pathogens and microbiological specificities of NI.

Pseudomonas [4] = settings: January 2010 - June 2014
[5] = system: carbapenemase-producing Enterobacteriaceae; assay: Antibiotic susceptibility of Enterobacteriaceae with decreased susceptibility to carbapenems; assay type: cell-based; settings: 39 selected bacteria
Pseudomonas aeruginosa [6] = assay: Disk diffusion susceptibility of P. aeruginosa isolated from burned patients (P-48); assay type: cell-based; settings: 485 strains from burned patients 2012-2015, disk diffusion, FSM breakpoints
[7] = Beta-lactam plasma concentrations in children with severe sepsis or septic shock (HPLC); settings: current standard dosing
Escherichia-coli = assay: Resistance in nosocomial urinary tract infection: Escherichia-coli (P-219); settings: January 2010 - June 2014
Pseudomonas [8] = assay: Resistance of VAP isolates: pseudomonas (P-224); assay type: cell-based; settings: 2014-2015
Excerpt: (§3) Patients and methods: Retrospective study spread over 2 years from January 2014 to December 2015 carried out in the resuscitation unit of the medical and surgical emergency department of CHUOran. Data utilization with Whonet software. The criteria of vap retained are those of CTINILS (May 2007).

Pseudomonas aeruginosa [9] = system: Pseudomonas aeruginosa
acintobacter baumanii = assay: Resistance of VAP isolates: baumanii (P-224); assay type: cell-based; settings: 2014-2015
Excerpt: as §3

Acinetobacter Baumanii = assay: Resistance of nosocomial infection isolates: Acinetobacter Baumanii (P-222); assay type: cell-based; settings: n = 39 isolates, 2016
Excerpt: as §2

[10] = system: Extended spectrum betalactamase producing Enterobacteriaceae; assay: Antibiotic resistance of ESBL producing Enterobacteriaceae (P-147); assay type: cell-based; settings: isolates 2015 and 2016
Acinetobacter baumannii [11] = assay type: cell-based; settings: blood culture isolates 2012–2016
Procedure: as §1

[12] = system: Pseudomonas aeruginosa (PA); assay: Antibiotic resistance of Pseudomonas aeruginosa before/after antibiotic stewardship (P-214); assay type: cell-based
Acinetobacter baumannii [13] = settings: January 2010 - June 2014

| Compound | resistant (Staphylococcus aureus [1]) [%] | resistance rate (Staphylococcus aureus [2]) [%] | resistant [3] [%] | resistant (Pseudomonas [4]) [%] | strains with MIC > 8 mg l [5] [%] | strains resistant (Pseudomonas aeruginosa [6]) [%] | patients with insufficient plasma concentration [7] [%] | resistant (Escherichia-coli) [%] | resistant (Pseudomonas [8]) [%] | resistance rate (Pseudomonas aeruginosa [9]) [%] | resistant (acintobacter baumanii) [%] | resistance (Acinetobacter Baumanii) [%] | rate of resistance [10] [%] | resistance rate (Acinetobacter baumannii [11]) [%] | resistance rate (Klebsiella pneumoniae) [%] | antibiotic resistance of PA ([12]; period 2007–2010 (P1)) [%] | antibiotic resistance of PA ([12]; period 2011–2014 (P2), after antibiotic stewardship, p < 0.01) [%] | resistant (Acinetobacter baumannii [13]) [%] |
| --- | --- | --- | --- | --- | --- | --- | --- | --- | --- | --- | --- | --- | --- | --- | --- | --- | --- | --- |
| COc1cccc(OC)c1C(=O)N[C@@H]1C(=O)N2[C@@H]1SC(C)(C)[C@@H]2C(=O)O [methicillin] | 25 | 70 | 75 |  |  |  |  |  |  |  |  |  |  |  |  |  |  |  |
| C[C@@H](O)[C@H]1C(=O)N2C(C(=O)O)=C(SCCN=CN)C[C@H]12 [imipenem] |  |  |  | 64 | 30 | 56 | 0 | 8 | 18.4 | 72 | 55 | 100 | 2.17 | 94 | 15 | 38 | 18 | 87 |
